Assay results: patent US20240398771A1, “TREATMENT OF SCLERODERMA AND RAYNAUD'S SYNDROME” (Aisa Pharma, Inc., priority 2023, published 2024)

Assays:
participants with SSc-RP [1] = experiment: Average severity (0-10) of weekly RP attacks, all attacks; assay type: in vivo, human; conditions: excluding outliers, ITT Part A
From the text: The relevant metrics measured by this tool daily are: • Study medication • SSc-RP symptoms (Reporting an attack including duration of attack) • Severity of the attack considering all symptoms of the attack e.g. tingling, numbness, pain, color changes (VAS 0-10 cm scale) • Participant's location at the time of the attack (inside home/outside home) • Selecting symptoms experienced during the attack (tingling, numbness, pain, color changes, other) • Pain rating during the attack (11-point Likert scale) • The RCS based on how much difficulty participants had with Raynaud's today, how many attacks the participant had, and how long they lasted. Participants will also be asked to consider how much pain, numbness, or other symptoms the Raynaud's caused in fingers (including painful sores), and how much the Raynaud's alone affected the use of hands today (VAS 0-10 cm scale).
The absolute change in average severity of weekly RP attacks (VAS 0-10 cm scale) from baseline to the end of each Dosing Period was and will be a secondary outcome variable. The sponsor-developed participant-informed diary will be used to record data. Average severity of weekly RP attacks is defined as the total severity scores of RP attacks divided by total number of RP attacks within the last 7 days of each dosing period. Total severity scores of RP attacks during the last 7 days of screening period divided by the total number of RP attacks will be used as baseline for the analysis of all periods. The variable will be calculated similar to frequency data as before.

participants with SSc-RP [2] = experiment: SHAQ Alternative Disability Index; assay type: in vivo, human
From the text: The standard, validated, patient reported outcome measures tool for SSc patients, the Scleroderma Health Assessment Questionnaire (SHAQ), will be used to assess the participant qualify of life. Details are attached in the Appendix. The participant quality of life will be scored, and a disability index calculated for each questionnaire completed by the patient at Screening and each in-clinic visit. The absolute change in participant quality of life from baseline to the end of each dosing period will be calculated similar to frequency data as before.
The SHAQ is used to calculate a Disability Index to assess the participant qualify of life. The eight categories assessed by the Disability Index are 1) dressing and grooming, 2) arising, 3) eating, 4) walking, 5) hygiene, 6) reach, 7) grip, and 8) common daily activities. For each of these categories, patients report the amount of difficulty they have in performing two or three specific activities.
There are four possible responses for the Disability Index questions: • Without any difficulty=0 • With some difficulty=1 • With much difficulty=2 • Unable to do=3 • The highest score reported by the patient for any component question of the eight categories determines the score for that category. • If a component question is left blank or the response is too ambiguous to assign a score, then the score for that category is determined by the remaining completed question(s). • If all component questions are blank or if more than one answer is given, then follow up with the respondent is required. • If the respondent's mark is between the response columns, then move it to the closest one. If it's directly between the two, move it to the higher one.
The scoring variables and scoring rules permit the computation of two disability indices, the Standard Disability Index and the Alternative Disability Index.
The aid and device variables are not used to calculate the alternative disability index; it is calculated by adding the scores for each of the categories and dividing by the number of categories answered. This gives a score in the 0 to 3 range.

participants with SSc-RP [3] = experiment: SHAQ Visual Analog Scale - Finger Ulcers; assay type: in vivo, human; parameters: Finger Ulcers, Baseline, Mean / Finger Ulcers, Baseline, Median / Finger Ulcers, Change from Baseline, Mean / Finger Ulcers, Change from Baseline, Median: scale not given here
Protocol: Results: Patients in the study were administered the Scleroderma Health Assessment Questionnaire (SHAQ) at the time of study entry and during clinic visits following the treatment period. The study is a two-part, parallel arm design, prospective, double-blind, randomized study conducted in Australia (Flinders Medical Center). 27 patients were randomized into the first phase of the study, following which a DSMB meeting was held, which reviewed data on the primary study endpoint and key Raynaud's secondary endpoints. Data on the SHAQ was not available for the DSMB to review. The mITT population, in which any data was available post treatment was 24 patients was the analysis population for this first part of the study. The second part (i.e., part B) of the study will randomize 36 patients in a double blind, randomized, prospective, placebo controlled, crossover study. In the first part (i.e., Part A) of the study for which data is presented, patients were randomized into 6 groups, cilnidipine at two doses (10 and 20 mg) alone and in combination with tadalafil 5 mg, tadalafil 5 mg alone, and placebo. […] The DSMB recommended that the study proceed into its double blind prospective cross overpowered second phase and compare cilnidipine 20 mg alone to placebo. […] Cilnidipine treatment may reduce patient-reported SSc disease disability compared to placebo • b. Cilnidipine treatment may reduce patient-reported SSc disease alternative disability compared to placebo • c. Cilnidipine treatment may reduce patient-reported SSc disease pain* compared to placebo • d. Cilnidipine treatment may reduce patient-reported SSc disease severity compared to placebo • e. Cilnidipine treatment may reduce patient-reported SSc disease skin ulcer severity rating compared to placebo • f Cilnidipine treatment may reduce patient-reported SSc disease breathing difficulty compared to placebo • g. […] SSc disease pain comprises not only pain from Raynaud's but joint pain, headache, odynophagia, back pain, pain from skin ulceration, and neuropathic pain). Table E includes results of the Scleroderma Health Assessment Questionnaire.

[4] = oral dosing; cited from earlier work
[5] = Tadalafil 5 mg, baseline RCS subgroup 2 of 2
[6] = Tadalafil 5 mg, Modified ITT, Part A
[7] = Cilnidipine 10 mg, baseline RCS subgroup 1 of 2
[8] = Cilnidipine 20 mg, baseline RCS subgroup 1 of 2
[9] = Pooled Cilnidipine 10 mg and Cilnidipine 10 mg + Tadalafil 5 mg, baseline RCS subgroup 1 of 2
[10] = Pooled Cilnidipine 10 mg and Cilnidipine 10 mg + Tadalafil 5 mg, baseline RCS subgroup 2 of 2
[11] = Pooled Cilnidipine 20 mg and Cilnidipine 20 mg + Tadalafil 5 mg, baseline RCS subgroup 1 of 2
[12] = Pooled Cilnidipine 20 mg and Cilnidipine 20 mg + Tadalafil 5 mg, baseline RCS subgroup 2 of 2
[13] = Pooled Cilnidipine, baseline RCS subgroup 1 of 2
[14] = Cilnidipine 10 mg, Modified ITT, Part A
[15] = Cilnidipine 20 mg, Modified ITT, Part A

## CN1CC(=O)N2[C@H](c3ccc4c(c3)OCO4)c3[nH]c4ccccc4c3C[C@@H]2C1=O [Tadalafil]
Participants with SSc-RP [1]; [5]
  Average Severity of Weekly RP Attacks (All Attacks): Average Severity, Mean: 4.56
  Average Severity of Weekly RP Attacks (All Attacks): Average Severity, Median: 4.56
  Average Severity of Weekly RP Attacks (All Attacks): Baseline, Mean: 5.75
  Average Severity of Weekly RP Attacks (All Attacks): Baseline, Median: 5.75
Participants with SSc-RP [2]; [6]
  Alternative disability index, Baseline, Mean: 0.688
  Alternative disability index, Change from Baseline, Mean: −0.071
  Alternative disability index, Change from Baseline, Median: −0.063
  Alternative disability index, In Clinic Visit (Day 12), Mean: 0.616
  Alternative disability index, In Clinic Visit (Day 12), Median: 0.482
  Alternative disability index, Percent Change from Baseline, Mean: 21.25%
  Alternative disability index, Percent Change from Baseline, Median: −7.69%
Participants with SSc-RP [3]; [6]
  Finger Ulcers, Baseline, Mean: 2.125
  Finger Ulcers, Baseline, Median: 0.050
  Finger Ulcers, Change from Baseline, Mean: −0.967
  Finger Ulcers, Change from Baseline, Median: −0.100
  Finger Ulcers, In Clinic Visit (Day 12), Mean: 1.867
  Finger Ulcers, In Clinic Visit (Day 12), Median: 0.000
  Finger Ulcers, Percent Change from Baseline, Mean: −66.67%
  Finger Ulcers, Percent Change from Baseline, Median: −66.67%
[4]
  time to achieve maximal plasma concentrations (Tmax): 2 h

## COCCOC(=O)C1=C(C)NC(C)=C(C(=O)OC/C=C/c2ccccc2)C1c1cccc([N+](=O)[O-])c1 (stereo not shown) [Cilnidipine, 1,4-dihydro-2,6-dimethyl,4-(3-nitrophenyl)-3,5-pyridinedicarboxylic acid 2-methoxyethyl (2 E)-3-phenyl-2-propenyl ester]
Participants with SSc-RP [1]; [7]
  Average Severity of Weekly RP Attacks (All Attacks): Baseline, Mean: 3.03
  Average Severity of Weekly RP Attacks (All Attacks): Baseline, Median: 3.03
Participants with SSc-RP [1]; [8]
  Average Severity of Weekly RP Attacks (All Attacks): Average Severity, Mean: 2.30
  Average Severity of Weekly RP Attacks (All Attacks): Average Severity, Median: 2.30
  Average Severity of Weekly RP Attacks (All Attacks): Baseline, Mean: 3.37
  Average Severity of Weekly RP Attacks (All Attacks): Baseline, Median: 3.37
Participants with SSc-RP [1]; [9]
  Average Severity of Weekly RP Attacks (All Attacks): Average Severity, Mean: 2.97
  Average Severity of Weekly RP Attacks (All Attacks): Average Severity, Median: 2.97
  Average Severity of Weekly RP Attacks (All Attacks): Baseline, Mean: 4.33
  Average Severity of Weekly RP Attacks (All Attacks): Baseline, Median: 4.33
Participants with SSc-RP [1]; [10]
  Average Severity of Weekly RP Attacks (All Attacks): Average Severity, Mean: 4.90
  Average Severity of Weekly RP Attacks (All Attacks): Average Severity, Median: 4.90
  Average Severity of Weekly RP Attacks (All Attacks): Baseline, Mean: 6.22
  Average Severity of Weekly RP Attacks (All Attacks): Baseline, Median: 6.22
Participants with SSc-RP [1]; [11]
  Average Severity of Weekly RP Attacks (All Attacks): Average Severity, Mean: 2.78
  Average Severity of Weekly RP Attacks (All Attacks): Average Severity, Median: 2.40
  Average Severity of Weekly RP Attacks (All Attacks): Baseline, Median: 4.12
Participants with SSc-RP [1]; [12]
  Average Severity of Weekly RP Attacks (All Attacks): Baseline, Mean: 6.59
  Average Severity of Weekly RP Attacks (All Attacks): Baseline, Median: 6.59
Participants with SSc-RP [1]; [13]
  Average Severity of Weekly RP Attacks (All Attacks): Average Severity, Median: 2.40
  Average Severity of Weekly RP Attacks (All Attacks): Baseline, Mean: 3.26
  Average Severity of Weekly RP Attacks (All Attacks): Baseline, Median: 3.03
Participants with SSc-RP [2]; [14]
  Alternative disability index, Baseline, Mean: 0.500
Participants with SSc-RP [2]; [15]
  Alternative disability index, Baseline, Median: 0.250
Participants with SSc-RP [2]; Example 4, SHAQ, mITT Part A
  patient-reported SSc disease alternative disability compared to placebo: may reduce
Participants with SSc-RP [3]; [14]
  Finger Ulcers, Baseline, Mean: 0.700
  Finger Ulcers, Baseline, Median: 0.500
  Finger Ulcers, Change from Baseline, Median: −0.350
  Finger Ulcers, In Clinic Visit (Day 12), Median: 0.000
Participants with SSc-RP [3]; [15]
  Finger Ulcers, Baseline, Mean: 1.800
  Finger Ulcers, Baseline, Median: 0.300
  Finger Ulcers, Change from Baseline, Median: 0.000
  Finger Ulcers, In Clinic Visit (Day 12), Median: 0.700
Participants with SSc-RP [3]; Example 4, SHAQ, mITT Part A
  patient-reported SSc disease skin ulcer severity rating compared to placebo: may reduce
[4]
  time to achieve maximal plasma concentrations (Tmax): about 2 hours
